Source: patent publication US8143290B2, “Chemical compounds 572” (AstraZeneca AB, priority 2006, dated 2012)

Molecular target: T1, recombinant human GR (Homo sapiens, UniProt P04150)
T1 construct: purchased Panvera/Invitrogen P2812 (kit P2893)
T1 sequence (P04150 1-777): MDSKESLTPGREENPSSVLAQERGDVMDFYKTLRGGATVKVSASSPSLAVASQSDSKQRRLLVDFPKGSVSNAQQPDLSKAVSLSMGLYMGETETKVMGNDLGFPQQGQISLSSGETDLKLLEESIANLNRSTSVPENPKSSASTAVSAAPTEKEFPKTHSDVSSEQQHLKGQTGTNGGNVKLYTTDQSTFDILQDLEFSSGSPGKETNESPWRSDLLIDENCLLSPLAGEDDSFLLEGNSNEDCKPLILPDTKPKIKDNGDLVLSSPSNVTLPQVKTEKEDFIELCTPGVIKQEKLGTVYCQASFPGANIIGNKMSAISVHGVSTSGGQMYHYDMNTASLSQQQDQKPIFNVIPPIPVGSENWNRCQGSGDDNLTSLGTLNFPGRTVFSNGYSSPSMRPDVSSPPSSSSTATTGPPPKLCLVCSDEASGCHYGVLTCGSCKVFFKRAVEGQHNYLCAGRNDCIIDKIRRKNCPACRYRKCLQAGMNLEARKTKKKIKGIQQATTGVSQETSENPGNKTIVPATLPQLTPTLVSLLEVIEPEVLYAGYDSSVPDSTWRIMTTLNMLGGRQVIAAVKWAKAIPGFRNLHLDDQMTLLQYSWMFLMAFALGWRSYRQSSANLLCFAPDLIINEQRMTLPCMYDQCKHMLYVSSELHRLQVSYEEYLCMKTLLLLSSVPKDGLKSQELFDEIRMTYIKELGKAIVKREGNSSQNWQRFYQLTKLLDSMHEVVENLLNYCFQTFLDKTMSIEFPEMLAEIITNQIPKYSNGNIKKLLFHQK
Test: Human Glucocorticoid Receptor (GR) Assay, fluorescence polarization
Type: binding
Details: GS Red tracer, incubated 2 h at r.t., XLfit model 205, read-out: GRhuFL_FP_v2 Mean IC50
Procedure, shortened: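 After 2 h dark incubation at r.t., polarization reported displacement of the GS Red tracer from recombinant GR, in buffer with phosphate, molybdate, EDTA, DTT and Stabilizing Peptide. Controls: dexamethasone (100%) and DMSO (0%).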

IC50	SMILES
2.1 nM	COc1cccc([C@@H](Oc2ccc3c(cnn3-c3ccc(F)cc3)c2)[C@H](C)NC(=O)c2cocn2)c1 [Example 85, N-((1R,2S)-1-(1-(4-fluorophenyl)-1H-indazol-5-yloxy)-1-(3-methoxyphenyl)propan-2-yl)oxazole-4-carboxamide]
3.8 nM	COc1cccc([C@@H](Oc2ccc3c(cnn3-c3ccc(F)cc3)c2)[C@H](C)NC(=O)c2ccco2)c1 [Example 86, N-((1R,2S)-1-(1-(4-fluorophenyl)-1H-indazol-5-yloxy)-1-(3-methoxyphenyl)propan-2-yl)furan-2-carboxamide]
3.2 nM	COc1cccc([C@@H](Oc2ccc3c(cnn3-c3ccc(F)cc3)c2)[C@H](C)NC(=O)c2ccncn2)c1 [Example 88, N-((1R,2S)-1-(1-(4-fluorophenyl)-1H-indazol-5-yloxy)-1-(3-methoxyphenyl)propan-2-yl)pyrimidine-4-carboxamide]
4.4 nM	COc1cccc([C@@H](Oc2ccc3c(cnn3-c3ccc(F)cc3)c2)[C@H](C)NC(=O)c2ccccn2)c1 [Example 89, N-((1R,2S)-1-(1-(4-fluorophenyl)-1H-indazol-5-yloxy)-1-(3-methoxyphenyl)propan-2-yl)picolinamide]
5.2 nM	CCC[C@H](NC(=O)CO)[C@H](Oc1ccc2c(cnn2-c2ccc(F)cc2)c1)c1ccccc1 [Example 91, N-((1R,2S)-1-(1-(4-fluorophenyl)-1H-indazol-5-yloxy)-1-phenylpentan-2-yl)-2-hydroxyacetamide]
3.8 nM	CCC[C@H](NC(=O)C(C)(C)C)[C@H](Oc1ccc2c(cnn2-c2ccc(F)cc2)c1)c1ccccc1 [Example 92, N-((1R,2S)-1-(1-(4-fluorophenyl)-1H-indazol-5-yloxy)-1-phenylpentan-2-yl)pivalamide]
3.7 nM	CCC[C@H](NC(=O)CO)[C@H](Oc1ccc2c(cnn2-c2ccc(F)cc2)c1)c1cccc(OC)c1 [Example 93, N-((1R,2S)-1-(1-(4-fluorophenyl)-1H-indazol-5-yloxy)-1-(3-methoxyphenyl)pentan-2-yl)-2-hydroxyacetamide]
3.1 nM	CCC[C@H](NC(=O)C(C)(C)C)[C@H](Oc1ccc2c(cnn2-c2ccc(F)cc2)c1)c1cccc(OC)c1 [Example 94, N-((1R,2S)-1-(1-(4-fluorophenyl)-1H-indazol-5-yloxy)-1-(3-methoxyphenyl)pentan-2-yl)pivalamide]
3.4 nM	CC[C@H](NC(=O)CO)[C@H](Oc1ccc2c(cnn2-c2ccc(F)cc2)c1)c1ccccc1 [Example 95, N-((1R,2S)-1-(1-(4-fluorophenyl)-1H-indazol-5-yloxy)-1-phenylbutan-2-yl)-2-hydroxyacetamide]
3.5 nM	CC[C@H](NC(=O)C(C)(C)C)[C@H](Oc1ccc2c(cnn2-c2ccc(F)cc2)c1)c1ccccc1 [Example 96, N-((1R,2S)-1-(1-(4-fluorophenyl)-1H-indazol-5-yloxy)-1-phenylbutan-2-yl)pivalamide]
3.3 nM	CC[C@H](NC(=O)CO)[C@H](Oc1ccc2c(cnn2-c2ccc(F)cc2)c1)c1cccc(OC)c1 [Example 97, N-((1R,2S)-1-(1-(4-fluorophenyl)-1H-indazol-5-yloxy)-1-(3-methoxyphenyl)butan-2-yl)-2-hydroxyacetamide]
2.6 nM	C[C@H](NC(=O)C(F)(F)F)[C@H](Sc1ccc2c(cnn2-c2ccc(F)cc2)c1)c1ccccc1 [Example 103, 2,2,2-trifluoro-N-((1R,2S)-1-(1-(4-fluorophenyl)-1H-indazol-5-ylthio)-1-phenylpropan-2-yl)acetamide]
3.6 nM	C[C@H](NC(=O)NC1CCCC1)[C@H](Oc1ccc2c(cnn2-c2ccc(F)cc2)c1)c1ccccc1 [Example 104]
3.2 nM	C[C@H](NC(=O)NCc1ccco1)[C@H](Oc1ccc2c(cnn2-c2ccc(F)cc2)c1)c1ccccc1 [Example 105, 1-{(1S,2R)-2-{[1-(4-Fluorophenyl)-1H-indazole-5-yl]oxy}-1-methyl-2-phenylethyl}-3-(2-furylmethyl)urea]
3.7 nM	CCOC(=O)CNC(=O)N[C@@H](C)[C@H](Oc1ccc2c(cnn2-c2ccc(F)cc2)c1)c1ccccc1 [Example 106, Ethyl N-{[(1S,2R)-2-{[1-(4-fluorophenyl)-1H-indazole-5-yl]oxy}-1-methyl-2-phenylethyl]carbamoyl}glycinate]
4 nM	CC(C)[C@@H](C)NC(=O)N[C@@H](C)[C@H](Oc1ccc2c(cnn2-c2ccc(F)cc2)c1)c1ccccc1 [Example 107]
4.9 nM	C[C@H](NC(=S)NCc1ccco1)[C@H](Oc1ccc2c(cnn2-c2ccc(F)cc2)c1)c1ccccc1 [Example 108, 1-{(1S,2R)-2-{[1-(4-Fluorophenyl)-1H-indazole-5-yl]oxy}-1-methyl-2-phenylethyl}-3-(2-furylmethyl)thiourea]
23 nM	COCC(=O)N[C@@H](CC(C)C)[C@H](Oc1ccc2c(cnn2-c2ccc(F)cc2)c1)c1cccc(F)c1 [Example 109, N-{(1S)-1-[(R)-(3-Fluorophenyl)-{[1-(4-fluorophenyl)-1H-indazole-5-yl]oxy}methyl]-3-methyl-butyl}-2-methoxyacetamide]
29 nM	CC(C)C[C@H](NC(=O)C(F)(F)F)[C@H](Oc1ccc2c(cnn2-c2ccc(F)cc2)c1)c1cccc(F)c1 [Example 110, 2,2,2-Trifluoro-N-{(1S)-1-[(R)-(3-Fluorophenyl)-{[1-(4-fluorophenyl)-1H-indazole-5-yl]oxy}methyl}-3-methylbutyl}-acetamide]
15 nM	COCC(=O)N[C@@H](COC)[C@H](Oc1ccc2c(cnn2-c2ccc(F)cc2)c1)c1cccc(F)c1 [Example 111, N-[(1)-(2R)-(3-Fluorophenyl)-2-{[1-(4-fluorophenyl)-1H-indazole-5-yl]oxy}-1-(methoxymethyl)ethyl]-2-methoxyacetamide]
21 nM	COC[C@H](NC(=O)c1ccco1)[C@H](Oc1ccc2c(cnn2-c2ccc(F)cc2)c1)c1cccc(F)c1 [Example 112, N-[(1S)-(2R)-(3-Fluorophenyl)-2-{[1-(4-fluorophenyl)-1H-indazol-5-yl]oxy}-1-(methoxymethyl)ethyl]furan-2-carboxamide]
3.2 nM	C[C@H](NC(=O)c1ccco1)[C@H](Oc1ccc2c(cnn2-c2cccnc2)c1)c1ccccc1 [Example 114, N-[(1S,2R)-1-Methyl-2-phenyl-2-{[1-(3-pyridyl)-1H-indazol-5-yl]oxy}ethyl]furan-2-carboxamide]
3.8 nM	C[C@H](NC(=O)c1ccco1)[C@H](Oc1ccc2c(cnn2-c2ccncc2)c1)c1ccccc1 [Example 115, N-[(1S,2R)-1-Methyl-2-phenyl-2-{[1-(4-pyridyl)-1H-indazol-5-yl]oxy}ethyl]furan-2-carboxamide]
7.7 nM	COC(=O)c1ccc(-n2ncc3cc(O[C@H](c4ccccc4)[C@H](C)NC(=O)c4ccco4)ccc32)cc1 [Example 116, Methyl 4-(5-{(1R,2S)-2-[(2-furylcarbonyl)amino]-1-phenylpropoxy}-1H-indazol-1-yl)benzoate]
2.9 nM	COCC(=O)N[C@@H](C)[C@H](Oc1ccc2c(cnn2-c2ccccn2)c1)c1ccccc1 [Example 118, 2-Methoxy-N-[1-methyl-2-phenyl-2-(1-pyridin-2-yl-1H-indazol-5-yloxy)-ethyl]acetamide]
3.1 nM	C[C@H](NC(=O)C(F)(F)F)[C@H](Oc1ccc2c(cnn2-c2ccc(Cl)nn2)c1)c1ccccc1 [Example 119, N-{2-[1-(6-Chloro-pyridazin-3-yl)-1H-indazol-5-yloxy]-1-methyl-2-phenyl-ethyl}-2,2,2-trifluoro-acetamide]
210 nM	COCC(=O)N[C@@H](C)[C@H](Oc1ccc2c(cnn2-c2ncccn2)c1)c1ccccc1 [Example 120, 2-Methoxy-N-[1-methyl-2-phenyl-2-(1-pyrimidin-2-yl-1H-indazol-5-yloxy)-ethyl]-acetamide]
2.8 nM	COc1cccc([C@@H](Oc2ccc3c(cnn3-c3ccc(F)cc3)c2)[C@H](C)NC(=O)CO)c1 [Example 121, N-[(1R,2S)-1-[1-(4-fluorophenyl)indazol-5-yl]oxy-1-(3-methoxyphenyl)propan-2-yl]-2-hydroxy-acetamide]
4.2 nM	C[C@H](NC(=O)CO)[C@H](Oc1ccc2c(cnn2-c2ccc(F)cc2)c1)c1ccc2c(c1)OCCO2 [Example 123, N-((1R,2S)-1-(2,3-dihydrobenzo[b][1,4]dioxin-6-yl)-1-(1-(4-fluorophenyl)-1H-indazol-5-yloxy)propan-2-yl)-2-hydroxyacetamide]
2.7 nM	C[C@H](NC(=O)C1(C)CC1)[C@H](Oc1ccc2c(cnn2-c2ccc(F)cc2)c1)c1ccc2c(c1)OCCO2 [Example 124, N-((1R,2S)-1-(2,3-dihydrobenzo[b][1,4]dioxin-6-yl)-1-(1-(4-fluorophenyl)-1H-indazol-5-yloxy)propan-2-yl)-1-methylcyclopropanecarboxamide]
